{"source": "paper PMC10525445", "about": "“Antitrypanosomal Activity of 1,2,3-Triazole-Based Hybrids Evaluated Using In Vitro Preclinical Translational Models” (Biology, 2023)", "key": {"[1]": {"system": "3D cardiac microtissue (heart muscle cells)", "assay": "Cardiotoxic effect on 3D cardiac spheroids", "type": "cell-based, Swiss Webster mice", "details": "72 h, up to 500 µM, read-out: Toxicity 3D Culture (CC50)", "experimental": "(§1) Primary heart muscle cell cultures were obtained from fetuses of female Swiss Webster mice, as previously described. After heart removal and ventricle fragmentation, tissue fragments were dissociated in a trypsin and collagenase type II (Worthington Biochemical Corporation, Lakewood, USA) dissociation solution. For two-dimensional (2D) cultures, the isolated cardiac cells were seeded at a density of 5 × 10^4 cells/well in gelatin (0.1%)-coated 96-well white culture plates. Three-dimensional (3D) cardiac spheroids were obtained after seeding isolated heart muscle cells at a density of 2.5 × 10^4 cells/well in an agarose (1%)-coated 96-well U-bottom plate, as described in [35]. Heart muscle cells cultures were cultivated in Dulbecco’s modified Eagle medium (DMEM) supplemented with 7% FBS, 2.5 mM CaCl2, 2% embryo extract, and 1 mM L-glutamin and maintained at 37 °C in a humidified atmosphere of 5% CO2. All procedures with animals were approved by the Animal Care and Use Committee at the Oswaldo Cruz Institute (license L-017/2022).\n(§2) The toxic effect of the triazole series was evaluated on VERO cell monolayers. After seeding for 24 hours, VERO cells were treated for 72 h at 37 °C with the 1,2,3-triazole derivatives and Bz, the reference drug, with a range of concentration from 15.62 to 500 µM. Controls were performed with a non-toxic concentration of dimethyl sulfoxide (DMSO; ≤0.1%) used in the experimental assays. Cell viability was determined by measuring ATP level using a CellTiter Glo kit. The luminescence read was performed using a Glomax microplate reader (Promega Corporation, Madison, WI, EUA). The cytotoxicity concentration 50 (CC50), the drug concentration that reduces cell viability by 50%, was calculated using linear regression. […] Cultures were exposed for 72 h to compound concentrations up to 500 µM, following the protocol mentioned above. At least 3 independent assays were performed in duplicate."}, "[2]": {"system": "heart muscle cells (2D culture)", "assay": "Cardiotoxic effect on 2D primary heart muscle cell culture", "type": "cell-based, Swiss Webster mice", "details": "heart muscle cell monolayers, 72 h, up to 500 µM; read-out: Toxicity 2D Culture (CC50)", "experimental": "as §1, §2"}, "[3]": {"system": "VERO cells", "assay": "Cytotoxicity on VERO cell monolayers (CellTiter Glo, 72 h)", "type": "cell-based", "details": "ATP level", "experimental": "as §2, with “VERO cells (Rio de Janeiro Cell Bank code 0245) were cultivated in RPMI 1640 medium supplemented with 10% fetal bovine serum (FBS) at 37 °C in a humidified atmosphere of 5% CO2. Confluent monolayers were dissociated with trypsin-EDTA solution (0.025%), and isolated cells were seeded on culture plates or flasks, depending on the experimental assay. The VERO cell cultures were used in cytotoxicity and phenotypic screening assays and for obtaining culture-derived trypomastigotes. The toxic” for “The toxic”"}, "[4]": {"assay": "Cardiotoxic effect on 3D cardiac spheroids", "type": "cell-based, Swiss Webster mice", "details": "Swiss Webster, mouse, 3D cardiac spheroids of primary fetal heart muscle cells, 3D cardiac microtissue, up to 500 µM, read-out: Toxicity 3D Culture (CC50)", "experimental": "as §1, §2"}, "[5]": {"assay": "Cardiotoxic effect on 2D primary heart muscle cell culture", "type": "cell-based, Swiss Webster mice", "details": "Swiss Webster, mouse, primary fetal heart muscle cells, 2D monolayer culture, heart muscle cell monolayers, up to 500 µM, read-out: Toxicity 2D Culture (CC50)", "experimental": "as §1, §2"}, "[6]": {"assay": "Cytotoxicity on VERO cell monolayers (CellTiter Glo, 72 h)", "type": "cell-based", "details": "African green monkey, VERO cell monolayers, ATP level, read-out: Cytotoxicity VERO Cells CC50", "experimental": "as §2, with “VERO cells (Rio de Janeiro Cell Bank code 0245) were cultivated in RPMI 1640 medium supplemented with 10% fetal bovine serum (FBS) at 37 °C in a humidified atmosphere of 5% CO2. Confluent monolayers were dissociated with trypsin-EDTA solution (0.025%), and isolated cells were seeded on culture plates or flasks, depending on the experimental assay. The VERO cell cultures were used in cytotoxicity and phenotypic screening assays and for obtaining culture-derived trypomastigotes. The toxic” for “The toxic”"}}}
{"molecule": "4-Phenyl-1-(m-tolyl)-1H-1,2,3-triazole [Triazole 1f]", "values": [{"measurement": "CC50", "setting": "[1]", "value": "> 500", "unit": "µM"}, {"measurement": "CC50", "setting": "[2]", "value": "111 ± 10.1", "unit": "µM"}, {"measurement": "CC50", "setting": "[3]", "value": "86.8 ± 2.73", "unit": "µM"}]}
{"molecule": "COc1ccc(-n2cc(-c3ccccc3)nn2)cc1", "note": "[Triazole 1d, 1-(4-Methoxyphenyl)-4-phenyl-1H-1,2,3-triazole]", "values": [{"measurement": "CC50 at 72 h", "setting": "[4]", "value": "> 500", "unit": "µM"}, {"measurement": "CC50 at 72 h", "setting": "[5]", "value": "> 500", "unit": "µM"}, {"measurement": "CC50 at 72 h", "setting": "[6]", "value": "> 500", "unit": "µM"}]}
{"molecule": "c1ccc(-c2cn(-c3ccccc3)nn2)cc1", "note": "[Triazole 1g, 1-(4-Diphenyl)-1H-1,2,3-triazole]", "values": [{"measurement": "CC50 at 72 h", "setting": "[4]", "value": "> 500", "unit": "µM"}, {"measurement": "CC50 at 72 h", "setting": "[5]", "value": "> 500", "unit": "µM"}, {"measurement": "CC50 at 72 h", "setting": "[6]", "value": "> 500", "unit": "µM"}]}
